Results published in US9884823B2, “Oxime ether acetate compound, preparation method therefor and weeding application thereof” (ZHEJIANG UNIVERSITY OF TECHNOLOGY, priority 2014, dated 2018).
Like-named read-outs stand apart in the source and are kept apart here.

What was measured:
[1] = test system: Barnyardgrass; assay: Potted plants live body test; format: in vivo, barnyard grass
[2] = test system: Mustard; conditions: 150 g a.i./ha, 30 days, Table 9
[3] = test system: Barnyardgrass; assay: Culture dish method (general screening); format: in vivo, barnyard grass; conditions: 100 mg/L, 7 days
From the text: (§2) Culture dish method (general screening): The test targets were radish, cucumber, rape, wheat, sorghum and barnyard grass; the seeds of wheat, sorghum and radish were germinated in advance, and the uniform emerge-germinating seeds were used in the test.

[4] = test system: Rape; conditions: 150 g a.i./ha; post-emergence spray treatment
[5] = test system: Radish; assay: Culture dish method (general screening); format: in vivo; conditions: 100 mg/L, 7 days
From the text: as §2

[6] = test system: Rice; conditions: 150 g a.i./ha; post-emergence spray treatment
[7] = test system: Wheat; assay: Culture dish method (general screening); format: in vivo; conditions: 100 mg/L, 7 days
From the text: as §2

[8] = test system: Rape; assay: Culture dish method (general screening); format: in vivo; conditions: 100 mg/L, 7 days
From the text: as §2

[9] = test system: Chinese sorghum; assay: Culture dish method (general screening); format: in vivo; conditions: 100 mg/L, 7 days
From the text: as §2

[10] = test system: amaranthus retroflexus; assay: Potted plants live body test; format: in vivo
Outline: (§1)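 Test compounds, first made up as a 1.0˜5.0% stock in DMF holding 1 wt % Tween-80 and then diluted in distilled water, were applied to the potted test weeds.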

[11] = test system: Crabgrass; assay: Potted plants live body test; format: in vivo
Outline: as §1

[12] = test system: Dog point; assay: Potted plants live body test; format: in vivo
Outline: as §1

[13] = test system: Abutilon; assay: Potted plants live body test; format: in vivo
Outline: as §1

[14] = test system: Eclipta prostrata; assay: Potted plants live body test; format: in vivo; conditions: for efficiency, Eclipta prostrata: 30 days, Table 9
Outline: as §1

[15] = test system: Soybean; conditions: 150 g a.i./ha; post-emergence spray treatment
[16] = test system: Cucumber; assay: Culture dish method (general screening); format: in vivo; conditions: 100 mg/L, 7 days
From the text: as §2

[17] = test system: Corn; conditions: post-emergence spray treatment
[18] = test system: Cotton; conditions: 150 g a.i./ha; post-emergence spray treatment
[19] = test system: weeds; conditions: pre-emergence soil treatment; dose lowered below 150 g a.i./ha
[20] = test system: grass weeds such as crabgrass, barnyard grass, dog point
[21] = test system: Small quinoa; conditions: 150 g a.i./ha, 30 days, Table 9
[22] = test system: broadleaf weeds such as mustard, small quinoa, Abutilon, Amaranthus retroflexus and Eclipta prostrate; conditions: 150 g a.i./ha
[23] = test system: Barley; conditions: post-emergence spray treatment
[24] = Pre-emergence soil treatment, 37.5 g a.i./ha
[25] = Pre-emergence soil treatment, 75 g a.i./ha
[26] = Pre-emergence soil treatment, 150 g a.i./ha, Table 10
[27] = postemergence spraying, 37.5 g a.i./ha
[28] = postemergence spraying, 75 g a.i./ha
[29] = postemergence spraying, 150 g a.i./ha, Table 10
[30] = Postemergence spraying, 150 g a.i./ha, 30 days, Table 9
[31] = Pre-emergence soil treatment, 150 g a.i./ha, 30 days, Table 9

Compound: CON=C(C(=O)OC)c1ccccc1COc1ccc(-c2ncc(Cl)cc2Cl)cc1 [Compound 133]
- efficiency, Barnyardgrass [1, 24]: 0%
- efficiency, Barnyardgrass [1, 25]: 0%
- efficiency, Barnyardgrass [1, 26]: 0%
- efficiency, Barnyardgrass [1, 27]: 0%
- efficiency, Barnyardgrass [1, 28]: 0%
- efficiency, Barnyardgrass [1, 29]: 0%
- efficiency, Mustard ([2]; Postemergence spraying): 100%
- efficiency, Mustard ([2]; Pre-emergence soil treatment): 100%
- inhibition rate, Barnyardgrass Root ([3]; root): 100%
- inhibition rate, Barnyardgrass Stem ([3]; stem): 100%
- Crop inhibition rate, Rape [4]: 100%
- inhibition rate, Radish Root ([5]; root): 100%
- inhibition rate, Radish Stem ([5]; stem): 100%
- Crop inhibition rate, Rice [6]: 30%
- inhibition rate, Wheat Root ([7]; root): 50%
- inhibition rate, Wheat Stem ([7]; stem): 0%
- inhibition rate, Rape Root ([8]; root): 100%
- inhibition rate, Rape Stem ([8]; stem): 100%
- inhibition rate, Chinese sorghum Root ([9]; root): 100%
- inhibition rate, Chinese sorghum Stem ([9]; stem): 100%
- efficiency, amaranthus retroflexus [10, 30]: 100%
- efficiency, amaranthus retroflexus [10, 24]: 20%
- efficiency, amaranthus retroflexus [10, 25]: 30%
- efficiency, amaranthus retroflexus [10, 31]: 100%
- efficiency, amaranthus retroflexus [10, 26]: 100%
- efficiency, amaranthus retroflexus [10, 27]: 100%
- efficiency, amaranthus retroflexus [10, 28]: 100%
- efficiency, amaranthus retroflexus [10, 29]: 100%
- efficiency, Crabgrass [11, 30]: 0%
- efficiency, Crabgrass [11, 24]: 0%
- efficiency, Crabgrass [11, 25]: 0%
- efficiency, Crabgrass [11, 31]: 50%
- efficiency, Crabgrass [11, 26]: 50%
- efficiency, Crabgrass [11, 27]: 0%
- efficiency, Crabgrass [11, 28]: 0%
- efficiency, Crabgrass [11, 29]: 0%
- efficiency, Dog point [12, 30]: 0%
- efficiency, Dog point [12, 24]: 0%
- efficiency, Dog point [12, 25]: 0%
- efficiency, Dog point [12, 31]: 50%
- efficiency, Dog point [12, 26]: 50%
- efficiency, Dog point [12, 27]: 0%
- efficiency, Dog point [12, 28]: 0%
- efficiency, Dog point [12, 29]: 0%
- efficiency, Abutilon [13, 30]: 100%
- efficiency, Abutilon [13, 24]: 0%
- efficiency, Abutilon [13, 25]: 0%
- efficiency, Abutilon [13, 31]: 100%
- efficiency, Abutilon [13, 26]: 100%
- efficiency, Abutilon [13, 27]: 100%
- efficiency, Abutilon [13, 28]: 100%
- efficiency, Abutilon [13, 29]: 100%
- efficiency on Abutilon ([13]; postemergence treatment, over doses 150, 75, 37.5 g a.i./ha): 100%
- efficiency, Eclipta prostrata ([14]; Postemergence spraying, 150 g a.i./ha): 100%
- efficiency, Eclipta prostrate [14, 24]: 0%
- efficiency, Eclipta prostrate [14, 25]: 0%
- efficiency, Eclipta prostrata ([14]; Pre-emergence soil treatment, 150 g a.i./ha): 100%
- efficiency, Eclipta prostrate [14, 26]: 100%
- efficiency, Eclipta prostrate [14, 27]: 97.5%
- efficiency, Eclipta prostrate [14, 28]: 100%
- efficiency, Eclipta prostrate [14, 29]: 100%
- Crop inhibition rate, Soybean [15]: 40%
- inhibition rate, Cucumber Root ([16]; root): 100%
- inhibition rate, Cucumber Stem ([16]; stem): 100%
- Crop inhibition rate, Corn ([17]; 150 g a.i./ha): 0%
- crop safety for corns [17]: safer
- Crop inhibition rate, Cotton [18]: 50%
- activity on 6 kinds of weed targets [19]: significantly decreased activity or no activity
- activity for grass targets such as crabgrass and dog point ([20]; 150 g a.i./ha, 30 days after administration, Table 9 summary): poor activity
- activity on grass weeds such as crabgrass, dog point ([20]; postemergence spraying, 150 g a.i./ha, 30 days): almost have no activity
- activity on crabgrass, barnyard grass, dog point ([20]; postemergence treatment, 150, 75, 37.5 g a.i./ha): not good activity or no activity
- activity on grass weeds ([20]; pre-emergence soil treatment, 150 g a.i./ha): not good activity
- efficiency, Small quinoa ([21]; Postemergence spraying): 100%
- efficiency, Small quinoa ([21]; Pre-emergence soil treatment): 100%
- inhibition rate on the growth of broadleaf weeds ([22]; 30 days): 100%
- herbicidal activity on broadleaf weeds targets ([22]; 30 days after administration, Table 9 summary): herbicidal activity
- activity on the growth of broadleaf weeds ([22]; postemergence spraying, 30 days, vs clear water control): inhibitory activity
- Crop inhibition rate, Barley ([23]; 150 g a.i./ha): 0%
- crop safety for barleys [23]: safer
